Results: patent publication US20070213402A1, “Compounds which interact with the thyroid hormone receptor for the treatment of fibrotic disease” (priority 1998, published 2007)

Assays:
pro-MMP-1 = test: Experiment 5: immunoblot of pro-MMP-1 in rheumatoid fibroblasts; assay type: cell-based, human; conditions: 36 hours, 10 ng/ml TPA plus 5×10^-7M substance, compared to TPA alone (lane 5)
Experimental: (§1) Rheumatoid fibroblasts were cultured from synovium obtained from the knee joint of a patient with rheumatoid arthritis. Cells were cultured in monolayer with DMEM tissue culture medium (Gibco) with the inclusion of 5% v/v charcoal stripped serum in 75 cm^2 flasks. The cells were treated for 36 hours with the addition of 10 ng/ml TPA (phorbol ester) plus 5×10^−7M thyroid hormone, Compound II or Compound III. TPA and drugs were added at time zero and at 30 hours, the TPA addition ensured phosphorylation of c-jun.
(§2) After 36 hours, cells were lysed in phosphate buffered saline (PBS) containing protease inhibitors and 0.1% Triton-X-100, and then boiled for 5 minutes in non-reducing gel loading buffer. Samples of cell lysate corresponding to equal cell number were loaded onto a 12.5% SDS polyacrylamide gel, and electrophoresis using a Bio-Rad™, (Bio-Rad Laboratories, California USA) Mini Protean II cell was performed at approximately 100V for one hour.
(§3) Transfer of proteins to nitrocellulose membrane was performed using a Bio-Rad Mini Trans-Blot transfer cell.
(§4) Immunoblotting was performed using polyclonal rabbit anti-human phosphorylation specific (set 73) c-jun (cat. No 06659, Upstate Biotechnology), or MMP-1 (cat. No. RDI-MMP1Habr, Research Diagnostics) antibodies diluted 1:1000 in Tris buffered saline+3% fat free milk powder. […]

c-jun = test: Experiment 5: immunoblot of phosphorylated (serine 73) c-jun in rheumatoid fibroblasts; assay type: cell-based, human; conditions: 36 hours, 10 ng/ml TPA plus 5×10^-7M substance, compared to TPA alone (lane 1)
Experimental: as §1, §2, §3, §4

collagenase I promoter = test: Experiment 1: collagenase I promoter (-73/+63)-luciferase in CV1 cells transfected with pSG5ARF (androgen receptor); assay type: cell-based, African Green Monkey; conditions: for % control (AR): Blank = 100
Text: (§5) Two plasmid constructs were introduced by standard calcium phosphate precipitation of DNA followed by glycerol shock (Ausubel F M, Brent R, Kingston D D, Moore J G et al Current protocols in molecular biology 1994 Greene Publishing Associates/Wiley-Interscience, New York, N.Y.) using a transformed African Green Monkey kidney cell line (CV1) (Schneikert J, Peterziel H, Defossez P-A, Klocker H, de Launoit Y and Cato A C B Androgen receptor-Ets protein interaction is a novel mechanism for steroid hormone-mediated down-modulation of matrix metalloproteinase expression, Journal of Biological Chemistry. Vol 271(39) (pp 23907-23913), 1996).
Accordingly, the following two plasmids were included into CV1 cells described above — • (a) Either of GR1 or pSG5ARF containing glucocorticoid or androgen receptor (AR) respectively, both at 2 ug per 5×10^5 cells, driven by the Rous sarcoma virus promoter, and • (b) a plasmid containing the −73/+63 portion of the collagenase I promoter linked to luciferase gene at 8 ug per 5×10^5 cells.
CPII was compound II above, clobuzarit.

androgen receptor = biological target: T1, androgen receptor (Homo sapiens, UniProt P10275); test: Experiment 2: PGL3MMTV-luciferase transactivation in CV1 cells with androgen receptor (AR); assay type: cell-based; conditions: for % control (AR): Blank = 100
T1 construct: expressed in transfected cells; host or cells: CV1 (transformed African Green Monkey kidney cell line)
T1 sequence (P10275 1-920): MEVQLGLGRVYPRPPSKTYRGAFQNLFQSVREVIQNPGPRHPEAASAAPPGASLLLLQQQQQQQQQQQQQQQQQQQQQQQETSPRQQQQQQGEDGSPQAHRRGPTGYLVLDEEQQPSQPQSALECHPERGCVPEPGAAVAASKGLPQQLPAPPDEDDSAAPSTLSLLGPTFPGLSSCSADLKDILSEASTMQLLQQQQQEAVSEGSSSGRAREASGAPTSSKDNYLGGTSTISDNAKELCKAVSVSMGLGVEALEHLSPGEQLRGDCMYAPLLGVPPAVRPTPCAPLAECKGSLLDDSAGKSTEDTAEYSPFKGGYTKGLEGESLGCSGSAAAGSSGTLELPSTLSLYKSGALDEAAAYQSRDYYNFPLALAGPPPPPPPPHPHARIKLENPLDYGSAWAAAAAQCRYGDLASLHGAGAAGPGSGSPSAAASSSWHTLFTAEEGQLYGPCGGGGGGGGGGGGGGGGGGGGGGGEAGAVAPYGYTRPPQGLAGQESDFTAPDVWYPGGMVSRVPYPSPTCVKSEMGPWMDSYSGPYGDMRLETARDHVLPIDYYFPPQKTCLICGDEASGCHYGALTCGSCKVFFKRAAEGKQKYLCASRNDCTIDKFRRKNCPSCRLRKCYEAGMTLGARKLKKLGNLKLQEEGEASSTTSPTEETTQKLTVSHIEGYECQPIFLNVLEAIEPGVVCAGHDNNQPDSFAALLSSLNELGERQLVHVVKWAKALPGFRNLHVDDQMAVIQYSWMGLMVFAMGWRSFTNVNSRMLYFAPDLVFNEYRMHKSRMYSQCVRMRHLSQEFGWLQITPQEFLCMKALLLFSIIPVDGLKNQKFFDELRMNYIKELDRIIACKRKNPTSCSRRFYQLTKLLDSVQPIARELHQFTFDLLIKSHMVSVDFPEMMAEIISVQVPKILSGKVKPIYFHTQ
Text: as §5
This experiment was intended to investigate the activation of androgen and corticosteroid receptors by compound I.
CPII was compound II above, clobuzarit, which was used at 10^−7M.

[1] = substance added with TPA 75 ng/ml, DHT 10^-7M
[2] = CPII 10^-7M together with DHT 10^-7M

`CC(C)(OCc1ccc(-c2ccc(Cl)cc2)cc1)C(=O)O` [Compound II, 1-[4-(4-chlorophenyl)benzyloxy]-1-methylpropionic acid] was tested, and the “amount of pro-MMP-1, band intensity” value (pro-MMP-1) was “lower intensity”, the “amount of phosphorylation of c-jun (serine 73), band intensity” value (c-jun) was “lower intensity” and the “% control (AR)” value (collagenase I promoter; substance added alone) was 51%. The “Raw counts (AR)” value (collagenase I promoter; substance added alone, TPA 75 ng/ml) was 1374 counts, the “Raw counts (AR)” value (collagenase I promoter; [1]) was 5986 counts and the “% control (AR)” value (collagenase I promoter; [1]) was 224%. For the same compound, the “collagenase I activation, in words (AR)” value (collagenase I promoter; TPA-stimulated, androgen receptor) was “able to down regulate collagenase I activation”, the “activation of androgen receptor-driven transcription, in words” value (androgen receptor; 10^-7M, compared with DHT) was “negligible activity” and the “Raw counts (AR)” value (androgen receptor; [2]) was 1232241 counts. For the same compound, the “% control (AR)” value (androgen receptor; [2]) was 26574%, the “Raw counts (AR)” value (androgen receptor; substance alone at 10^-7M) was 33130 counts and the “% control (AR)” value (androgen receptor; substance alone at 10^-7M) was 714%.
